{
  "source": "patent US9567324B2",
  "about": "“Substituted nicotinamide derivatives as kinase inhibitors” (Allergan, Inc., priority 2013, dated 2017)",
  "key": {"[1]": {"molecular_target": "PDGFRβ (purified cytoplasmic domain PDGFR-b protein) (Homo sapiens (Human), UniProt P09619)", "sequence (P09619 554-1106)": "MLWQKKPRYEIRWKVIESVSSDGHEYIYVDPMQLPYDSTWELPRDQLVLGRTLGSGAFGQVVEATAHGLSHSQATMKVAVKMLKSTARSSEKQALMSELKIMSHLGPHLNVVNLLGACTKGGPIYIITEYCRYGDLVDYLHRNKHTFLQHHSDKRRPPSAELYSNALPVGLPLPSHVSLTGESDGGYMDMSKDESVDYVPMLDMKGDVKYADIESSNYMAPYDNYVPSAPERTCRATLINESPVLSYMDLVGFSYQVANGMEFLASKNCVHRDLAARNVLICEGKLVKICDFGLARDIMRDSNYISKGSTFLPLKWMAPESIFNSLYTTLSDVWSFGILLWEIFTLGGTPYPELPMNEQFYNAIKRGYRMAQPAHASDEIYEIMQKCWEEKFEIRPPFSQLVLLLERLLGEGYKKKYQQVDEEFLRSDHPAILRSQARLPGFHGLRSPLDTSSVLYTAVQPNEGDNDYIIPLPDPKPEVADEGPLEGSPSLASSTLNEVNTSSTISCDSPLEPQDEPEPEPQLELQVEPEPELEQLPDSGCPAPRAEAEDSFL", "experiment": "PDGFRβ Kinase Assay", "assay_type": "biochemical", "details": "for IC50: 36 μM ATP, poly-Glu-Tyr (4:1) substrate, ELISA read-out, read-out: PDGFRβ Enzyme Assay (IC50 nM)", "method": "Biochemical PDGFRβ kinase assays were performed in 96 well microtiter plates that were coated overnight with 75 μg of poly-Glu-Tyr (4:1) in 10 mM Phosphate Buffered Saline (PBS), pH 7.4. The coated plates were washed with 2 mls per well PBS+0.05% Tween-20 (PBS-T), blocked by incubation with PBS containing 1% BSA, then washed with 2 mls per well PBS-T prior to starting the reaction. Reactions were carried out in 100 μL reaction volumes containing 36 μM ATP in kinase buffer (50 mM Hepes buffer pH 7.4, 20 mM MgCl2, 0.1 mM MnCl2 and 0.2 mM Na3VO4). Test compounds were reconstituted in 100% DMSO and added to the reaction to give a final DMSO concentration of 5%. Reactions were initiated by the addition 20 ul per well of kinase buffer containing 200-300 ng purified cytoplasmic domain PDGFR-b protein (Millipore). Following a 60 minute incubation at 30° C., the reactions were washed 2 mls per well PBS-T. 100 μl of a monoclonal anti-phosphotyrosine antibody-peroxidase conjugate diluted 1:10,000 in PBS-T was added to the wells for 30 minutes. Following a 2 mls per well wash with PBS-Tween-20, 100 μl of O-Phenylenediamine Dihydrochloride in phosphate-citrate buffer, containing urea hydrogen peroxide, was added to the wells for 7-10 minutes as a colorimetric substrate for the peroxidase. The reaction was terminated by the addition of 100 μl of 2.5N H2SO4 to each well and read using a microplate ELISA reader set at 492 nm. IC50 values for compound inhibition were calculated directly from graphs of optical density (arbitrary units) versus compound concentration following subtraction of blank values."}, "[2]": {"molecular_target": "PDGFRβ (Homo sapiens (Human), UniProt P09619)", "sequence (P09619 33-1106)": "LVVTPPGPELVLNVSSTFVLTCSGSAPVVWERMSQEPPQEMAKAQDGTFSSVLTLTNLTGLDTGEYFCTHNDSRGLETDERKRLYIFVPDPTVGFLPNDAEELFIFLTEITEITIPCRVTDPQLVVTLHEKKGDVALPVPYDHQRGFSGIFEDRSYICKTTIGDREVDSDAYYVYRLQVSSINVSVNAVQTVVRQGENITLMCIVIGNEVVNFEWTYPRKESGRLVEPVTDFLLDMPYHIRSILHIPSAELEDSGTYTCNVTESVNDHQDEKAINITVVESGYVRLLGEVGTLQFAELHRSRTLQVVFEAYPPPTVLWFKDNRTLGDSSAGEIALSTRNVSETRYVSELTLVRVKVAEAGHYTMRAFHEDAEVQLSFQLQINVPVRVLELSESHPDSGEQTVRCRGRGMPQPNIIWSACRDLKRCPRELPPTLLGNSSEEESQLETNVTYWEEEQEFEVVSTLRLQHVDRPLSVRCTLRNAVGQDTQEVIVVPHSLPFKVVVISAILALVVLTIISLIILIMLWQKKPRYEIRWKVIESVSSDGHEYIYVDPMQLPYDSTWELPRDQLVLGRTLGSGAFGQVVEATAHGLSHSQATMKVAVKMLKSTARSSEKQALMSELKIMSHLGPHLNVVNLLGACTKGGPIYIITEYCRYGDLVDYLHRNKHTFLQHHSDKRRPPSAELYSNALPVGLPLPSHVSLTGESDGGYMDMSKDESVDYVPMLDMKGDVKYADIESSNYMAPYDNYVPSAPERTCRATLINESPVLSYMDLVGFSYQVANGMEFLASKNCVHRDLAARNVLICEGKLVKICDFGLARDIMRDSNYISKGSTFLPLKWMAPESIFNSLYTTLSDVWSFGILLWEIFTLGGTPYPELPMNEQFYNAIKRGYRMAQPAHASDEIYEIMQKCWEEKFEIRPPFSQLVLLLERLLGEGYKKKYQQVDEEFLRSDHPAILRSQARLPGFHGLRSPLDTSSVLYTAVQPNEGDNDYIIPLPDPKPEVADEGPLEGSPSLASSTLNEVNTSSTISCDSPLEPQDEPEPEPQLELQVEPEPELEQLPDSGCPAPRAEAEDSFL", "experiment": "PDGFRβ Cellular Assay (FLIPR, PDGF-induced intracellular calcium in NHDF-Ad)", "assay_type": "cell-based", "details": "PDGF-BB stimulation (30 ng/mL), Fluo-4 FLIPR", "method": "Automated FLIPR (Fluorometric Imaging Plate Reader) technology was used to screen for inhibitors of PDGF-induced increases in intracellular calcium levels in fluorescent dye loaded […] cells. NHDF-Ad (Normal Human Dermal Fibroblasts, Adult; Lonza) were seeded in 384-well fibronectin coated black-walled plates overnight @ 37° C./5% CO2. Cells were loaded with calcium indicator Fluo-4 for 45 minutes at 37° C. Cells were washed 2 times (E1×405, Biotek Instruments) to remove extracellular dye. For screening, cells were pre-incubated with test agents for 30 minutes, at a single concentration (10 uM) or at concentrations ranging from 0.0001 to 10.0 uM followed by PDGF-BB stimulation (30 ng/mL). Changes in fluorescence at 516 nm were measured simultaneously in all 384 wells using a cooled CCD camera. Data were generated by determining max-min fluorescence levels for unstimulated, stimulated, and drug treated samples. IC50 values for test compounds were calculated from % inhibition of PDGF-BB stimulated responses in the absence of inhibitor."}},
  "data": [
    {"compound": "CCOC(=O)CNC(=O)N1CCS(=O)(=NC(=O)c2cncc(C#Cc3cccc(NC(=O)c4occc4C)c3)c2)CC1", "note": "[Example 11, Ethyl({[1-({[5-({3-[(3-methyl-2-furoyl)amino]phenyl}ethynyl)pyridin-3-yl]carbonyl}imino)-1-oxido-1λ^4,4-thiazinan-4-yl]carbonyl}amino)acetate]", "values": [
      {"measurement": "activity/potency at the PDGFRβ receptor (in words)", "setting": "[1]", "result": "greatest potency"}
    ]},
    {"compound": "Cc1ccoc1C(=O)Nc1cccc(C#Cc2cncc(C(=O)N=S3(=O)CCOCC3)c2)c1", "note": "[Example 19, 5-({3-[(3-methyl-2-furoyl)amino]phenyl}ethynyl)-N-(4-oxido-1,4λ^4-oxathian-4-ylidene)nicotinamide]", "values": [
      {"measurement": "IC50", "setting": "[2]", "result": 19, "unit": "nM"},
      {"measurement": "IC50", "setting": "[1]", "result": 23, "unit": "nM"}
    ]},
    {"compound": "Cc1ccc(F)c(NC(=O)c2cccc(C#Cc3cc(C(=O)N=S4(=O)CCOCC4)cnc3N)c2)c1", "note": "[Example 22, 6-amino-5-[(3-{[(2-fluoro-5-methylphenyl)amino]carbonyl}phenyl)ethynyl]-N-(4-oxido-1,4λ^4-oxathian-4-ylidene)nicotinamide]", "values": [
      {"measurement": "IC50", "setting": "[2]", "result": 17, "unit": "nM"}
    ]},
    {"compound": "Cc1ccc(F)c(C(=O)Nc2cccc(C#Cc3cc(C(=O)N=S4(=O)CCOCC4)cnc3N)c2)c1", "note": "[Example 21, 6-amino-5-({3-[(2-fluoro-5-methylbenzoyl)amino]phenyl}ethynyl)-N-(4-oxido-1,4λ^4-oxathian-4-ylidene)nicotinamide]", "values": [
      {"measurement": "IC50", "setting": "[1]", "result": 24, "unit": "nM"}
    ]},
    {"compound": "Cc1ccoc1C(=O)Nc1cccc(C#Cc2cc(C(=O)N=S3(=O)CCN(C(=O)OC(C)(C)C)CC3)cnc2N)c1", "note": "[Example 13, tert-Butyl 1-({[6-amino-5-({3-[(3-methyl-2-furoyl)amino]phenyl}ethynyl)pyridin-3-yl]carbonyl}imino)-1λ^4,4-thiazinane-4-carboxylate 1-oxide]", "values": [
      {"measurement": "activity/potency at the PDGFRβ receptor (in words)", "setting": "[1]", "result": "greatest potency"}
    ]},
    {"compound": "Cc1ccc(F)c(C(=O)Nc2cccc(C#Cc3cc(C(=O)N=S4(=O)CCNCC4)cnc3N)c2)c1", "note": "[Example 17, 6-Amino-5-({3-[(2-fluoro-5-methylbenzoyl)amino]phenyl}ethynyl)-N-(1-oxido-1λ^4,4-thiazinan-1-ylidene)nicotinamide]", "values": [
      {"measurement": "activity/potency at the PDGFRβ receptor (in words)", "setting": "[1]", "result": "greatest potency"},
      {"measurement": "IC50", "setting": "[1]", "result": 7, "unit": "nM"}
    ]},
    {"compound": "Cc1ccc(F)c(C(=O)Nc2cccc(C#Cc3cc(C(=O)N=S4(=O)CCN(C(=O)OC(C)(C)C)CC4)cnc3N)c2)c1", "note": "[Example 16, tert-butyl 1-({[6-Amino-5-({3-[(2-fluoro-5-methylbenzoyl)amino]phenyl}ethynyl)pyridin-3-yl]carbonyl}imino)-1λ^4,4-thiazinane-4-carboxylate 1-oxide]", "values": [
      {"measurement": "activity/potency at the PDGFRβ receptor (in words)", "setting": "[1]", "result": "greatest potency"}
    ]},
    {"compound": "COc1cccc(NC(=O)c2cccc(C#Cc3cc(C(=O)N=S4(=O)CCOCC4)cnc3N)c2)c1", "note": "[Example 25, 6-amino-5-[(3-{[(3-methoxyphenyl)amino]carbonyl}phenyl)ethynyl]-N-(4-oxido-1,4λ^4-oxathian-4-ylidene)nicotinamide]", "values": [
      {"measurement": "IC50", "setting": "[1]", "result": 19, "unit": "nM"}
    ]},
    {"compound": "Cc1ccoc1C(=O)Nc1cccc(C#Cc2cc(C(=O)N=S3(=O)CCOCC3)cnc2N)c1", "note": "[Example 20, 6-amino-5-({3-[(3-methyl-2-furoyl)amino]phenyl}ethynyl)-N-(4-oxido-1,4λ^4-oxathian-4-ylidene)nicotinamide]", "values": [
      {"measurement": "IC50", "setting": "[2]", "result": 31, "unit": "nM"},
      {"measurement": "IC50", "setting": "[1]", "result": 51, "unit": "nM"}
    ]},
    {"compound": "CC(C)(C)c1cc(NC(=O)c2cccc(C#Cc3cc(C(=O)N=S4(=O)CCOCC4)cnc3N)c2)no1", "note": "[Example 24, 6-amino-5-[(3-{[(5-tert-butylisoxazol-3-yl)amino]carbonyl}phenyl)ethynyl]-N-(4-oxido-1,4λ^4-oxathian-4-ylidene)nicotinamide]", "values": [
      {"measurement": "activity/potency at the PDGFRβ receptor (in words)", "setting": "[1]", "result": "best activity"},
      {"measurement": "IC50", "setting": "[1]", "result": 10, "unit": "nM"}
    ]},
    {"compound": "Cc1ccoc1C(=O)Nc1cccc(C#Cc2cncc(C(=O)N=S3(=O)CCN(C(N)=O)CC3)c2)c1", "note": "[Example 3, 1-({[5-({3-[(3-Methyl-2-furoyl)amino]phenyl}ethynyl)pyridin-3-yl]carbonyl}imino)-1λ^4,4-thiazinane-4-carboxamide 1-oxide]", "values": [
      {"measurement": "activity/potency at the PDGFRβ receptor (in words)", "setting": "[1]", "result": "greatest potency"}
    ]},
    {"compound": "Cc1ccc(F)c(C(=O)Nc2cccc(C#Cc3cc(C(=O)N=S4(=O)CCN(C(N)=O)CC4)cnc3N)c2)c1", "note": "[Example 18, 1-({[6-Amino-5-({3-[(2-fluoro-5-methylbenzoyl)amino]phenyl}ethynyl)pyridin-3-yl]carbonyl}imino)-1λ^4,4-thiazinane-4-carboxamide 1-oxide]", "values": [
      {"measurement": "IC50", "setting": "[1]", "result": 7, "unit": "nM"}
    ]},
    {"compound": "Nc1ncc(C(=O)N=S2(=O)CCOCC2)cc1C#Cc1cccc(C(=O)Nc2ccc(Cl)c(C(F)(F)F)c2)c1", "note": "[Example 23, 6-amino-5-{[3-({[4-chloro-3-(trifluoromethyl)phenyl]amino}carbonyl)phenyl]ethynyl}-N-(4-oxido-1,4λ^4-oxathian-4-ylidene)nicotinamide]", "values": [
      {"measurement": "IC50", "setting": "[1]", "result": 13, "unit": "nM"}
    ]}
  ]
}
